The test has as its target T1, YuiC (degraded K32-E218) (Bacillus subtilis, UniProt O32108).
T1 construct: mature protein K32-E218, signal peptide removed, E. coli Rosetta 2 (DE3), His-tag cut by TEV leaving GIDPFT; partially proteolysed at or close to R52; residues 72-217 modelled; domain-swapped dimer, site formed by both chains
T1 sequence (O32108 32-218): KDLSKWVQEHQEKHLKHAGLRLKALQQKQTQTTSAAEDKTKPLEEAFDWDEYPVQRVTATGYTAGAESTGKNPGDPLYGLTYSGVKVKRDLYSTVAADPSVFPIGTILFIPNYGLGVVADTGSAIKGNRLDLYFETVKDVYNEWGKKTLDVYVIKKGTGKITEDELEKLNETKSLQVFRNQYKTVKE
The experiment in a line: X-ray crystal structure, […] Å. In kind it is binding. Conditions: 5 mM NAG in crystallisation, pH 6.0; bound at -2 site, one per chain.

Regarding `CC(=O)N[C@H]1C(O)O[C@H](CO)[C@@H](O)[C@@H]1O` (stereo partly shown) [NAG, N-acetylglucosamine], the “X-ray crystal structure, 1.21 Å” value was “Crystallisation of YuiC in the presence of NAG gives a structure with a single”.

The record behind these values is publication PMC4499186, “Structure of the stationary phase survival protein YuiC from B.subtilis” (BMC Structural Biology, 2015).
